Results reported in US9771361B2, “Inhibitors of influenza viruses replication” (priority 2013, dated 2017).
Where “and” joins values, the source holds several entries; their conditions need not be identical. Identical values can stand only once. Counter-ions that a name gives are not always drawn. Like-named read-outs stand apart in the source and are kept apart here. Marks after values point to notes of the source that are not given here.

What was measured:
[1] = tested on: influenza virus B/Mass/3/66; type: in vivo, Balb/c mice
[2] = tested on: Influenza A/California/04/2009 (pndH1N1) virus; type: in vivo, BALB/c mice
[3] = tested on: Influenza A/Victoria/3/75 (H3N2) virus; type: in vivo, BALB/c mice
[4] = tested on: Influenza A/Vietnam/1203/2004 (H5N1) virus; set-up: species or system BALB/c mice; conditions: mouse, in vivo
[5] = tested on: influenza A strains; type: cell-based, influenza A virus
[6] = tested on: influenza B virus; type: cell-based
[7] = tested on: influenza A; type: in vivo, mice
[8] = tested on: influenza A virus; type: in vivo, mice
[9] = tested on: influenza A; set-up: species or system mice; conditions: mouse, in vivo
[10] = tested on: influenza virus; set-up: species or system mice; conditions: mouse, in vivo
[11] = tested on: influenza A/Wisconsin/67/2005 (H3N2) challenge strain virus; set-up: species or system humans; conditions: human, in vivo
[12] = tested on: influenza A/Wisconsin/67/2005 (H3N2) challenge strain virus; set-up: species or system humans; conditions: human, in vivo; remark: listed apart in the source
[13] = tested on: influenza A/Wisconsin/67/2005 (H3N2) challenge strain virus; set-up: species or system humans; conditions: human, in vivo; remark: listed apart in the source
[14] = human, in vivo
[15] = in vivo
[16] = Conversion of free base Form A to hydrated form B with humidity/water activity; type: physicochemical; conditions: ambient temperature
[17] = Water activity tests: competition slurry of Form A seeded with Form F in IPA/water; type: physicochemical; conditions: Starting Forms A + F, Water Activity (aw) 0.9, Water wt % 2.80
[18] = tested on: influenza virus A/PR/8/34; type: in vivo, Balb/c mice
[19] = Compound (1) 0 mg/kg, Oseltamivir 10 mg/kg, […]
[20] = 10 mg/kg per treatment, twice a day for 10 days starting 2 hours prior to virus exposure
[21] = treatment start +48 h, 10 mg/kg BID
[22] = treatment start +72 h, 10 mg/kg BID

Q: Which results are given for `O=C(O)[C@H]1C2CCC(CC2)C1Nc1nc(-c2c[nH]c3ncc(F)cc23)ncc1F` (stereo partly shown) [Compound (1)]?
A: Penh (Day 6/7) ([1]; mouse, in vivo): 1.90 and 2.06 and 2.04; Survival (21 days) ([1]; mouse, in vivo): 0%; Weight Loss (Day 8) ([1]; mouse, in vivo): 33.6% and 33.9% and 33%; activity against influenza B in vivo ([1]; mouse, in vivo): little activity; interference with the effectiveness of Oseltamivir ([1]; mouse, in vivo): does not interfere with the effectiveness of Oseltamivir; protection against morbidity, BW loss or loss of lung function ([1]; mouse, in vivo): no significant protection against morbidity, BW loss or loss of lung function; Survivors/Total ([2]; mouse, in vivo): 9/9*** and 10/10***; Survivors/Total ([3]; mouse, in vivo): 10/10***; protection [4]: complete protection; activity against all influenza A strains tested [5]: potent activity; activity against influenza B virus [6]: limited activity; survival and BW loss ([7]; mouse, in vivo): complete survival and a dose-dependent reduction in BW loss; Percent Body Weight Loss on Study Day 8 ([7]; mouse, in vivo, 0.1 mg/kg): −31.9%; Percent Survival ([7]; mouse, in vivo, 0.1 mg/kg): 0%; Percent Body Weight Loss on Study Day 8 ([7]; mouse, in vivo, 0.3 mg/kg): −30.4%; Percent Survival ([7]; mouse, in vivo, 0.3 mg/kg): 25%; Percent Body Weight Loss on Study Day 8 ([7]; mouse, in vivo, 1 mg/kg): −16.8%; Percent Survival ([7]; mouse, in vivo, 1 mg/kg): 100%; Percent Body Weight Loss on Study Day 8 ([7]; mouse, in vivo, 3 mg/kg): −8.7%; Percent Survival ([7]; mouse, in vivo, 3 mg/kg): 100%; Percent Body Weight Loss on Study Day 8 ([7]; mouse, in vivo, 10 mg/kg): −2.8%; Percent Survival ([7]; mouse, in vivo, 10 mg/kg): 100%; protection ([8]; mouse, in vivo): partial protection; protection from death and BW loss ([8]; mouse, in vivo): complete protection from death and reduced BW loss; survival ([8]; mouse, in vivo): complete survival; Percent Survival ([8]; mouse, in vivo, 1 mg/kg): 100%; reduction in lung viral titers [9]: robust, statistically significant reductions in lung viral titers; correlation between lung titer reduction and Cmin [10]: clear correlation; AUC viral shedding versus pooled placebo [11]: statistically significant reduction; dose response trend in median AUC viral shedding in nasal swabs [11]: statistically significant dose response trend; improvement over placebo in viral shedding [11]: a similar magnitude of improvement over placebo was not observed; peak viral shedding versus pooled placebo [11]: significant reductions; rates of seroconversion versus placebo [12]: no difference; median AUC of influenza-like symptoms versus placebo [13]: statistically significant reduction; median duration of composite clinical symptoms versus placebo [13]: statistically significant reduction; median duration of influenza-like symptoms versus placebo [13]: statistically significant reduction; discontinuations and serious adverse events [14]: no discontinuations due to Compound (1)-related adverse events (AE) nor were there any serious adverse events; elevations in alanine aminotransferase (ALT) [14]: observed; incidence of decreased blood phosphorus level [14]: 18.1%; incidence of nasal congestion [14]: 1.4%; incidence of rhinorrhea [14]: 4.2%; tolerability [14]: well tolerated; liver function abnormalities and serum phosphate decreases [15]: Neither liver function abnormalities nor serum phosphate decreases were observed

Q: Which “water activity where the hydrate form (form B) was observed” value [16] does the source give for `O=C(O)[C@H]1C2CCC(CC2)[C@@H]1Nc1nc(-c2c[nH]c3ncc(F)cc23)ncc1F` [Form A of Compound (1)] here?
A: The value was “greater than 0.6”.

Q: Which “Final Form” value [17] does the source give for `O=C(O)[C@H]1C2CCC(CC2)C1Nc1nc(-c2c[nH]c3ncc(F)cc23)ncc1F` (stereo partly shown) [Form A of HCl salt of Compound (1).½H2O] here?
A: The value was “converted to Form F of HCl salt of Compound (1).3H2O”.

Q: Which “Penh (Day 3)” value [18, 19] does the source give for `CCOC(=O)C1=C[C@@H](OC(CC)CC)[C@H](NC(C)=O)[C@@H](N)C1` [Oseltamivir] here?
A: Its value is 2.36.

Q: What about the “Survival (21 days)” value [18, 19] of the same molecule?
A: The value was 0%.

Q: What about the “Weight Loss (Day 8)” value [18, 19] of the same molecule?
A: The value was 32.0%.

Q: What about the “protection from death, BW loss and lung function” value ([18]; mouse, in vivo) of the same molecule?
A: Its value is “did not protect from death reduce BW loss or restore lung function”.

Q: And the “Penh (Day 6/7)” value [1, 19]?
A: Its value is 1.08.

Q: And the “Survival (21 days)” value [1, 19]?
A: The value was 100%.

Q: What about the “Weight Loss (Day 8)” value [1, 19] of the same molecule?
A: Its value is 12.8%.

Q: And the “protection from death, BW loss and lung function” value ([1]; mouse, in vivo)?
A: Its value is “complete protection from death, reduced BW loss and restored lung function”.

Q: And the Survivors/Total [2, 20]?
A: Its Survivors/Total is 10/10***.

Q: What about the Survivors/Total [3, 20] of the same molecule?
A: Its Survivors/Total is 9/10***.

Q: And the survival ([7]; 10 mg/kg BID, same experiment)?
A: The survival was “All of the oseltamivir-administered mice survived”.

Q: What about the “Percent Body Weight Loss on Study Day 8” value ([7]; mouse, in vivo, 10 mg/kg) of the same molecule?
A: The value was −19.1%.

Q: What about the “Percent Survival” value ([7]; mouse, in vivo, 10 mg/kg) of the same molecule?
A: Its value is 100%.

Q: And the “Percent Body Weight Loss on Study Day 8” value ([8]; mouse, in vivo, 10 mg/kg)?
A: Its value is −28.9%.

Q: And the “Percent Survival” value ([8]; mouse, in vivo, 10 mg/kg)?
A: Its value is 100%.

Q: What about the “Percent Body Weight Loss on Study Day 8” value [8, 21] of the same molecule?
A: Its value is −31.1%.

Q: And the “Percent Survival” value [8, 21]?
A: The value was 80%.

Q: And the “Percent Body Weight Loss on Study Day 8” value [8, 22]?
A: The value was −31.3%.

Q: And the “Percent Survival” value [8, 22]?
A: Its value is 0%.
